Data as given in article PMC4033217, “Characterization of Novel PI3Kδ Inhibitors as Potential Therapeutics for SLE and Lupus Nephritis in Pre-Clinical Studies” (Frontiers in Immunology, 2014).
Entries after “also recorded” stand apart in the source; their conditions may differ. Like-named read-outs stand apart in the source and are kept apart here.

Key:
[1] = target: PI3K γ (Homo sapiens, UniProt P48736); test: Scintillation proximity assay, PI3Kγ enzymatic activity; type: biochemical; details: 65 μM ATP, read-out: Enzymatic potency IC50
[2] = system: pAkt and CD69 in B cells; test: Ex vivo mouse whole blood assays (pAkt, CD69) after oral dosing; type: in vivo; details: for ED50: Mus musculus, B-cell, naïve C57BL/6N mice, read-out: ED50 inhibition of pAkt and CD69
Method: PI3Kδ inhibitors were administered to naïve C57BL/6N mice (Charles River Laboratories, L’Arbresle, France), by gavage at indicated time points before heparinized whole blood was obtained and divided into two aliquots. One aliquot was incubated with anti-IgD as stimulation and another PBS as basal control. pAkt in B cells or CD69 up-regulation on B cell surface of each sample was measured as described for the in vitro assays. The difference between stimulated and basal levels of mean fluorescence intensity (MFI) was calculated as Δ value.

[3] = system: 12 BioMAP human primary cell co-culture systems; test: BioMAP profiling in 12 human primary cell co-culture systems; details: any concentration (from 10 to 33.3 μM as printed), any culture system
Method: Overt cytotoxicity of test compounds was assessed by total cell protein staining sulforhodamine B (Sigma-Aldrich, St. Louis, MO, USA) for adherent cells, or by cell viability staining Alamar Blue (Invitrogen, Carlsbad, CA, USA) for non-adherent cells.
Overtly adverse effects of
Proliferation of PBMC (T cells) was
140 quantiﬁ ed by Alamar blue reduction and proliferation of adherent cell types was quantiﬁ ed by SRB
PBMC viability was assessed by adding Alamar blue (Invitrogen, Camarillo, CA) to PBMC
SRB was performed by removing supernatants from plates, washing plates with
Plates are washed ag ain with PBS then,
Overtly cytotoxic compounds are

[4] = target: PAK3 (Homo sapiens, UniProt O75914); test: PAK3 kinase inhibition; type: biochemical
[5] = target: Hck (Homo sapiens, UniProt P08631); test: Hck kinase inhibition; type: biochemical
[6] = system: B cell/PBMC co-culture; test: BioMAP B–T system (B cell/PBMC co-culture, anti-IgM and mild TCR stimulation); type: cell-based, human; details: 84 h
Method: Positively selected primary normal human CD19^+ B cells and CD4^+ T-cells were obtained from AllCells (Emeryville, CA, USA). PBMC were isolated from buffy coats (Stanford Blood Center, Stanford, CA, USA).
The levels of readout parameters were measured by ELISA ([14], [15]). Measurement values for each biomarker readout in a compound-treated sample were divided by the mean value from eight DMSO control samples (from the same plate) to generate a ratio. All ratios were then log10 transformed and plotted (BioMAP profile). Overt cytotoxicity of test compounds was assessed by total cell protein staining sulforhodamine B (Sigma-Aldrich, St. Louis, MO, USA) for adherent cells, or by cell viability staining Alamar Blue (Invitrogen, Carlsbad, CA, USA) for non-adherent cells.
This system models both T-cell-dependent B cell activation and class-switching as would occur in a germinal center, and B-cell-dependent T-cell responses, such as cytokine release ([13]).

[7] = In vivo pharmacokinetics in mouse; details: estimated
[8] = system: pAkt in Ramos B cells; test: BCR-crosslinking (anti-IgM)-induced Akt phosphorylation in Ramos cells; type: cell-based; details: Homo sapiens, 0.25 h, anti-IgM 15 min
[9] = system: NZB/W F1 mice; test: IFNα-accelerated NZB/W F1 mouse SLE model; type: in vivo
Method: All protocols and procedures were conducted according to German animal protection law (Tierschutzgesetz) and were approved by the local veterinarian authorities (Regierungspräsidium, Darmstadt, Germany). Ten-week-old female NZB/W F1 mice (Jackson Laboratories, Bar Harbor, ME, USA) were given a single i.v. injection of 1 × 10^8 IU/100 μl of AdV-IFN-α (adenovirus with mmIfna5_v1 insert, Biofocus, CoA.NL.09.160) in saline or left untreated (sham). Drug treatments were either initiated at 2 weeks (early intervention regimen) or 4 weeks (late intervention regimen) post AdV-IFN-α delivery until the end of the experiment (at 10 weeks). […] Serum and urine samples were collected for anti-dsDNA antibodies (by ELISA) and urinary protein creatinine ratio (UPCR) (measured by ADVIA 1800) determination, respectively, on the days indicated. Proteinuria is defined as UPCR >3.

[10] = Human PK prediction based on allometric scaling; details: data not shown
[11] = system: panel of 278 additional kinases; test: Kinase selectivity profile at 10 µM; type: biochemical; details: significant inhibition = >50%, ATP at Km
[12] = Caco-2 permeability; type: in vitro ADME; details: human
Source text: (§1) 36 CLint: intrinsic clearance in liver microsomes. h/m: human/mouse. Papp: apparent permeability. uPPB:
(§2) 37 unbound plasma protein binding. […]

[13] = system: CD123+/CD303+ pDC cells; test: Plasmacytoid dendritic cell IFN-α release assay (CpG ODN 2395); type: cell-based, human
Method: Plasmacytoid dendritic cells were isolated from PBMC of healthy volunteers by negative selection using pDC purification kit (Miltenyi Biotech, Bergisch Gladbach, Germany). […] IFN-α in the supernatants was measured from the culture supernatants with Verikine ELISA kit (PBL Assay Science, Piscataway, NJ, USA).

[14] = Unbound plasma protein binding, human; type: in vitro ADME; details: unbound fraction
Source text: as §1, §2

[15] = target: PI3K α (Homo sapiens, UniProt P42336); test: Scintillation proximity assay, PI3Kα enzymatic activity; type: biochemical; details: 65 μM ATP, read-out: Enzymatic potency IC50
[16] = system: CD4+CD45RA− memory T-cells; test: T-cell cytokine release assay (anti-CD3/anti-CD28); type: cell-based, human; details: for IC50: Homo sapiens, T-cell, 120 h, memory T-cells, anti-CD3 and anti-CD28, 5 days
Method: Purified T-cells were incubated with PI3Kδ inhibitors for 1 h, and stimulated with 5 μg/ml anti-CD3 and 2 μg/ml anti-CD28 for 5 days. Cytokines in the supernatants were measured with Luminex® xMAP® multiplex bead assay kits (Bio-Rad, Hercules, CA, USA).

[17] = Intrinsic clearance in human liver microsomes; type: in vitro ADME; details: read-out: In vitro Clint
Source text: as §1, §2

[18] = system: PI3K δ; test: Scintillation proximity assay, PI3Kδ enzymatic activity; type: biochemical, human
[19] = target: PI3K δ (Homo sapiens, UniProt O00329); test: as above; type: biochemical; details: PI3K δ; 65 μM ATP; read-out: Enzymatic potency IC50
[20] = system: CD19+ B cells; test: B cell cytokine release assay (anti-Ig, CpG ODN 2006, IFNα); type: cell-based; details: Homo sapiens, 48 h
Method: Cytokines in the supernatants were measured with Cytometric Bead Array kits (BD Biosciences Pharmingen, San Diego, CA, USA).

Sequence of PI3K γ (P48736 whole entry): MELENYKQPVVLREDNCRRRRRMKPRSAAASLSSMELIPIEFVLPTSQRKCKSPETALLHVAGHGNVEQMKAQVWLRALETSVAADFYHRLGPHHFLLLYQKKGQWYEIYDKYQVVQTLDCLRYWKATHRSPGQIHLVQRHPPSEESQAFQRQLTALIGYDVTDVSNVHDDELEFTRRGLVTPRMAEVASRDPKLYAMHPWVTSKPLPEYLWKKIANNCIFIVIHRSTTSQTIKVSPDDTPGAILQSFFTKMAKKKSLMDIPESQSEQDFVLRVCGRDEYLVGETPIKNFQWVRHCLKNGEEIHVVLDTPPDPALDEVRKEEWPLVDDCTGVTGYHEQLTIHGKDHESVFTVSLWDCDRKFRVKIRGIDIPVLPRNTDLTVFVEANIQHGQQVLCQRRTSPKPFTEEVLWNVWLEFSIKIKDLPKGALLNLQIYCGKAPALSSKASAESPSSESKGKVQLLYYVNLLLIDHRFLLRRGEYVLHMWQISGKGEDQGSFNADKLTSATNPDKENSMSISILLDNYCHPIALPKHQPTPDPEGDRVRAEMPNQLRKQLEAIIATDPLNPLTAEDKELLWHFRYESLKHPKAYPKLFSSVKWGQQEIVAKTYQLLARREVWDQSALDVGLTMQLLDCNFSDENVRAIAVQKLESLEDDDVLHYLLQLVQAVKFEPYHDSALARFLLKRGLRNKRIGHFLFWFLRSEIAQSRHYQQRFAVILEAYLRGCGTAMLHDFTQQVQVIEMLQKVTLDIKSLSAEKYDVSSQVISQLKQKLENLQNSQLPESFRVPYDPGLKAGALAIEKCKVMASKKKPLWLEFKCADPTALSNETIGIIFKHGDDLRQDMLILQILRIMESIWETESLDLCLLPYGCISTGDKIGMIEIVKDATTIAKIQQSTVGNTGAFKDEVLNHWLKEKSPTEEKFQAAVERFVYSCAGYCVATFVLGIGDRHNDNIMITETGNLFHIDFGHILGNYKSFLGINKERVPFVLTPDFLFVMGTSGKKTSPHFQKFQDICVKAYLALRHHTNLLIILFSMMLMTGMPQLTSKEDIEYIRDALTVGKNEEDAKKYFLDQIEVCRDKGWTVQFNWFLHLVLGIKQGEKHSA
Sequence of Hck (P08631 whole entry, species assumed): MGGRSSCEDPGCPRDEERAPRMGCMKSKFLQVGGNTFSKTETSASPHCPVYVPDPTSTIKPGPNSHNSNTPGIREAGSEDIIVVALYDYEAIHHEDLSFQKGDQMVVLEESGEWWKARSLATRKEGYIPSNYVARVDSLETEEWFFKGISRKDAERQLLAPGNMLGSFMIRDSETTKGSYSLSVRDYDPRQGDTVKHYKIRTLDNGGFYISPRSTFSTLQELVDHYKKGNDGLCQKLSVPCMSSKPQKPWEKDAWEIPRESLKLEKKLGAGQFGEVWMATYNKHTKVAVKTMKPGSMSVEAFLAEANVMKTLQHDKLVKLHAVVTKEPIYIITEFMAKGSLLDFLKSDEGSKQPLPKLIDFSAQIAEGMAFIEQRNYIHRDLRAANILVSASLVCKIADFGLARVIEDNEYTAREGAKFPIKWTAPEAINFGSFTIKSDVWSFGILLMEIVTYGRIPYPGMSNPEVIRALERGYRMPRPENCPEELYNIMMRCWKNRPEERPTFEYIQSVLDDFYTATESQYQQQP
Sequence of PI3K α (P42336 whole entry): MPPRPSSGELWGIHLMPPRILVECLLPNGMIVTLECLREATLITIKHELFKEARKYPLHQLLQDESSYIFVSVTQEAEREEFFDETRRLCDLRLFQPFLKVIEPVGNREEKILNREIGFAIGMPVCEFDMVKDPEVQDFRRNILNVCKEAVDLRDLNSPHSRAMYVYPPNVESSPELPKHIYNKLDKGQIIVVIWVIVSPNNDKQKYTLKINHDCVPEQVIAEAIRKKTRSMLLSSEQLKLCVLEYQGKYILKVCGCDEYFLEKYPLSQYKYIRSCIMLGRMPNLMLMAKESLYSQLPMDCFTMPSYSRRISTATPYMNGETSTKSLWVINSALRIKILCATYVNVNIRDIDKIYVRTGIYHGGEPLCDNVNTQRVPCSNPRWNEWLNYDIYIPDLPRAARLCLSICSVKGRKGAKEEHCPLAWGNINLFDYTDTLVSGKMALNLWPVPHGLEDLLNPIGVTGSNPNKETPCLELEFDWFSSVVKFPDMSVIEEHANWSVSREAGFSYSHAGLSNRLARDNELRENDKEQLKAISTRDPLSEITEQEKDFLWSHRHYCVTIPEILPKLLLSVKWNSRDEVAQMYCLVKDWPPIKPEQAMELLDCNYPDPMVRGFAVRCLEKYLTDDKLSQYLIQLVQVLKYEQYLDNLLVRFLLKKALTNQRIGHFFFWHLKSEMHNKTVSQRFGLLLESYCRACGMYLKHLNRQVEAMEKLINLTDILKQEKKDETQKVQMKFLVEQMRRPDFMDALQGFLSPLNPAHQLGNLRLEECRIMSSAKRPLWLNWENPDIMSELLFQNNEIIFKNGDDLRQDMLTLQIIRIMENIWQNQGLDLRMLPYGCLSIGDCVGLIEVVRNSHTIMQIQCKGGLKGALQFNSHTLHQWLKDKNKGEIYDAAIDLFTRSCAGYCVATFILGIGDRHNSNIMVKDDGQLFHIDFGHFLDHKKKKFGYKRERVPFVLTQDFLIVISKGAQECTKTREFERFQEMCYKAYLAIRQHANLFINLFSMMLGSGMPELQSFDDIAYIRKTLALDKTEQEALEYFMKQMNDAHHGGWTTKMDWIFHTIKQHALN
Sequence of PI3K α (P27986 whole entry partner): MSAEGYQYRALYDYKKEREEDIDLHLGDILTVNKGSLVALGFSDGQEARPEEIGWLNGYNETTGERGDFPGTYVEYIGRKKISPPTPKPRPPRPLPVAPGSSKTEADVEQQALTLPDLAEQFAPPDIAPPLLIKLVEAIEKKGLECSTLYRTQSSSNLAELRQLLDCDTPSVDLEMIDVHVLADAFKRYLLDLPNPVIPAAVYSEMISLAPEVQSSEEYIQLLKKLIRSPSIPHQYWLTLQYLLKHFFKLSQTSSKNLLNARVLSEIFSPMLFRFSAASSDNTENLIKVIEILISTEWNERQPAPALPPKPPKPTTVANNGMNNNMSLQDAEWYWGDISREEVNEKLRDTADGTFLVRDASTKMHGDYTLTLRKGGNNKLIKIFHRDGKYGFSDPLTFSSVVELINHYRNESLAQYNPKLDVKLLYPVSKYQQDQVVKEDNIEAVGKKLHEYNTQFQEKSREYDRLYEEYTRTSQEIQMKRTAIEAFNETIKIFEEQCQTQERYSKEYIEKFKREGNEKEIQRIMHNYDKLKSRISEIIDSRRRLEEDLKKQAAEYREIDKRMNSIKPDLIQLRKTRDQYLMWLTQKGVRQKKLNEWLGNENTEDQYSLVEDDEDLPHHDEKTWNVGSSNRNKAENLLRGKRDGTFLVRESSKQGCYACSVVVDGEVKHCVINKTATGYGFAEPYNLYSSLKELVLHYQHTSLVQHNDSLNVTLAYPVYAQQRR
Sequence of PAK3 (O75914 whole entry, species assumed): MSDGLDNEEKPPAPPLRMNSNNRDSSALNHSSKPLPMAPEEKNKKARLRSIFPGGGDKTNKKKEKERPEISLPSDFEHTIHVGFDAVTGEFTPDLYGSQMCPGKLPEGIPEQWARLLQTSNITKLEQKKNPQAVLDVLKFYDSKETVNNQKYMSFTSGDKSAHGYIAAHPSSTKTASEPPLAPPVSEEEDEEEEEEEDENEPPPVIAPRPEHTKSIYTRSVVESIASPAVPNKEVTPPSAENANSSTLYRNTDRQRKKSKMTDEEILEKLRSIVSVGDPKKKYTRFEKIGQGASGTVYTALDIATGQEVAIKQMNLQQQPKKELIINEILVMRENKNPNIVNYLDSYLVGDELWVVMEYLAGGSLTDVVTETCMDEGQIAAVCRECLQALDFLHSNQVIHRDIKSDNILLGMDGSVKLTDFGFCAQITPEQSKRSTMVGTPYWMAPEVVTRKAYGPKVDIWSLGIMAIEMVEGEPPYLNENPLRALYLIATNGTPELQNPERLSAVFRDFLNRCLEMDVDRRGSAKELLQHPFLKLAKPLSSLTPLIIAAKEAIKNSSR
Sequence of PI3K δ (Homo sapiens, UniProt O00329) (O00329 whole entry): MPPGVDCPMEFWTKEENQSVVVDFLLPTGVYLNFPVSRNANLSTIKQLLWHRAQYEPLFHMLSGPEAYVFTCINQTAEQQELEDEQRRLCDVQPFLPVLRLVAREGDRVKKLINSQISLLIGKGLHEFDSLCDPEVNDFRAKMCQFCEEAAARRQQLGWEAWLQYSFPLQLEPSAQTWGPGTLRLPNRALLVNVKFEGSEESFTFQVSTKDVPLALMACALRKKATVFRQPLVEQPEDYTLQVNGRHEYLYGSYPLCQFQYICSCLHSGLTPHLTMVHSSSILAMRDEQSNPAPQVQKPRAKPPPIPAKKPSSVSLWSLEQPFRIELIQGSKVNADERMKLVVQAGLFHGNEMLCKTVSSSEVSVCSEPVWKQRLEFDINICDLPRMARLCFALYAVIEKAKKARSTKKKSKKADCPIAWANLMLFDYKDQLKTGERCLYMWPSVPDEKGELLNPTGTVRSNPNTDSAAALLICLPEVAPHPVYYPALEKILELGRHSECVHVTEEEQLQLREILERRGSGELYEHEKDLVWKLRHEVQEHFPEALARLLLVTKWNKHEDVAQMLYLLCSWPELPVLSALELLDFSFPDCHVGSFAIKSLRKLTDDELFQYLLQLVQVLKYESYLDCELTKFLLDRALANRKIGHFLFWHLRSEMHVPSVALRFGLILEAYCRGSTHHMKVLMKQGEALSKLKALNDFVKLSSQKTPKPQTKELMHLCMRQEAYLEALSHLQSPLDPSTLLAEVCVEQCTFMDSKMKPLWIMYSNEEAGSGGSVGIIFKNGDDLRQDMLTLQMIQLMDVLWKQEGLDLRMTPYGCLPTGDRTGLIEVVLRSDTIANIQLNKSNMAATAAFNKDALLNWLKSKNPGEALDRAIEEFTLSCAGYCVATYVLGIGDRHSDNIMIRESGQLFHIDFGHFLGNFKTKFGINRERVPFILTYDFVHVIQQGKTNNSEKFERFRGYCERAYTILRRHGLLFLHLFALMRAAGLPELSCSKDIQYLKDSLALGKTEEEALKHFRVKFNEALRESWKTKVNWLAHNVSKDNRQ

SMILES: O=C(c1nn([C@@H]2CCCN(CCN3CCOCC3)C2)c2c1CS(=O)(=O)c1cc(F)ccc1-2)N1CCOCC1 [MSC2364588, (R)-7-fluoro-3-(morpholin-4-ylcarbonyl)-1-[1-(2-morpholin-4-ylethyl)piperidin-3-yl]-1,4-dihydrothiochro-meno[4,3-c]pyrazole 5,5-dioxide]
- IC50 [1]: > 20000 nM
- Effect on pAkt and CD69 ([2]; 6 h post administration): almost no effect
- ED50 ([2]; 1 h time point): 3 mg/kg
- ED50 ([2]; 2 h): ~10 mg/kg
- Cytotoxicity [3]: No signs of cytotoxicity
- IC50 [4]: > 10000 nM
- IC50 [5]: > 10000 nM
- B cell proliferation and IgG secretion, IL-17A, IL-2 and TNFα release [6]: significantly and dose-dependently inhibited
- IL-6 levels [6]: no effect
- CL/F ([7]; C57BL/6N, plasma, po): 418 mL/min/kg
- half-life ([7]; C57BL/6N, plasma, po): 36 min
- Ka [7]: 1.6 h⁻¹
- V/F [7]: 5.8 L/kg
- IC50 [8]: 57 nM
- Proteinuria progression / disease severity ([9]; half daily dose given twice daily, early intervention): reduces disease severity; also recorded: Equivalent results
- Drug-related body weight loss ([9]; throughout the studies, data not shown): no drug-related body weight loss
- Predicted human half-life / dosing frequency [10]: predicted to require twice daily dosing
- Inhibition of kinases in the panel [11]: impaired Hck and PAK3 activity
- Papp [12]: 2.4 ×10⁻⁶ cm/s
- efflux ratio [12]: 1.6
- Suppression of IFNα production by pDCs ([13]; CpG oligodeoxynucleotide-induced, TLR9-mediated): suppressed
- IC50 ([13]; Homo sapiens, Plasmacytoid dendritic cell, pDC, CpG ODN 2395 Type C, 18 h): 105 nM
- uPPB % [14]: 100%
- IC50 [15]: 7650 nM
- IC50 ([16]; read-out: IC50 IL-6): 23 nM
- IC50 ([16]; read-out: IC50 IL-10): 18 nM
- IC50 ([16]; read-out: IC50 IL-17): 16 nM
- IC50 ([16]; read-out: IC50 TNF-α): 57 nM
- Potency relative to MSC2360844 ([16]; T-cell cytokines): 10 times
- microsomal CLint [17]: 21 µL/min/mg
- Potency relative to MSC2360844 ([18]; all assays, cell types and in vitro enzymatic activity): 5–10 times
- Potency relative to MSC2360844 ([18]; enzymatic and cellular contexts): 10 fold
- IC50 [19]: 15 nM
- IC50 ([20]; read-out: IC50 IL-6): 9 nM
- IC50 ([20]; read-out: IC50 IL-10): 10 nM
- IC50 ([20]; read-out: IC50 TNF-α): 18 nM
